Data on 1 molecule can be found in PMC9628870 (Journal of Microbiology and Biotechnology, 2022).

The assay concerns the target T1, Burkholderia pseudomallei L-asparaginase (Burkholderia pseudomallei, UniProt Q63UZ6).
T1 construct: gene ansB
The note with it: 10 mM substrate, 50 mM Tris-HCl pH 8.6, 37 °C, 10 min.

T1 sequence (Q63UZ6 1-347 limits assumed): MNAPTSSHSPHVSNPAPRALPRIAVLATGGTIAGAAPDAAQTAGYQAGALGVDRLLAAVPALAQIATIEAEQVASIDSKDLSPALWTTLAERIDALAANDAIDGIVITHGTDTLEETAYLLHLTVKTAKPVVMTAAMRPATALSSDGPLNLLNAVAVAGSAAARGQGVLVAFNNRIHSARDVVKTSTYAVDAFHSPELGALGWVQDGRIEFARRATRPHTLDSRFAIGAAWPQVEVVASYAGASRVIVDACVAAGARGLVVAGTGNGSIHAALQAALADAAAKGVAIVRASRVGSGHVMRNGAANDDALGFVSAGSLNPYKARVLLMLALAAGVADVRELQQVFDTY

Consider `NC(=O)C[C@H](N)C(=O)O` [L-asparagine], for which the “ammonia release by Nessler's reagent” value was “the purified recombinant enzyme displayed the maximum activity and specificity towards the reaction substrate L-asparagine”.
